Results on 18 molecules are retold here after PubChem BioAssay AID330 (DTP/NCI, 2004).

This assay has as its system P388 leukemia ip, CD2F1 mice, survival T/C. The assay can be described thus: NCI In Vivo Anticancer Drug Screen. Data for tumor model P388 Leukemia (intraperitoneal) in CD2F1 (CDF1) mice. The note with it: endpoint: median survival time, higher = longer survival. The method, boiled down:
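Mice carrying the transplanted tumor received test compound or vehicle. Survival was recorded in each group, and the value is the treated-group measurement divided by that of the vehicle-treated control group.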

[1] abbreviates: dose: 60.0 mg/kg/injection, schedule: Q01DX005 (ip), vehicle: saline with Tween-80.
[2] abbreviates: dose: 120.0 mg/kg/injection, schedule: Q01DX005 (ip), vehicle: saline with Tween-80.
Where [3] appears, read: dose: 240.0 mg/kg/injection, schedule: Q01DX005 (ip), vehicle: saline with Tween-80.
The mark [4] stands for this setting: dose: 50.0 mg/kg/injection, schedule: Q01DX005 (ip), vehicle: saline with Tween-80.
Setting [5] is: dose: 100.0 mg/kg/injection, schedule: Q01DX005 (ip), vehicle: saline with Tween-80.
The mark [6] stands for this setting: dose: 50.0 mg/kg/injection, schedule: Q01DX009 (ip), vehicle: Klucel (hydroxypropylcellulose) (HPC).
[7] abbreviates: dose: 12.5 mg/kg/injection, schedule: Q01DX005 (ip), vehicle: saline with Tween-80.
Where [8] appears, read: dose: 25.0 mg/kg/injection, schedule: Q01DX005 (ip), vehicle: saline with Tween-80.

“And” between values parts separate entries of the source, which are not always exact repeats. Equal values may be shown once. Toxic doses and inconclusive results are not listed.

Take `O=c1cccc(C2CC(CO)C3CCCCN3C2)[nH]1` (centres undefined): the T/C was 86 % of control (dose: 1.1 mg/kg/injection, schedule: Q01DX009 (ip), vehicle: distilled water + Tween-80 + alcohol); 96 % of control (dose: 1.5 mg/kg/injection, schedule: Q01DX009 (ip), vehicle: acid diluted with CMC); 99 % of control (dose: 2.2 mg/kg/injection, schedule: Q01DX009 (ip), vehicle: acid diluted with CMC); 93 % of control (dose: 2.2 mg/kg/injection, schedule: Q01DX009 (ip), vehicle: distilled water + Tween-80 + alcohol); 96 % of control (dose: 4.5 mg/kg/injection, schedule: Q01DX009 (ip), vehicle: acid diluted with CMC); 93 % of control (dose: 4.5 mg/kg/injection, schedule: Q01DX009 (ip), vehicle: distilled water + Tween-80 + alcohol). Besides, the T/C by setting is: (dose: 9.0 mg/kg/injection, schedule: Q01DX009 (ip), vehicle: acid diluted with CMC) 99 % of control and 93 % of control; (dose: 9.0 mg/kg/injection, schedule: Q01DX009 (ip), vehicle: distilled water + Tween-80 + alcohol) 103 % of control; (dose: 18.0 mg/kg/injection, schedule: Q01DX009 (ip), vehicle: acid diluted with CMC) 94 % of control.

Regarding `C/C=C1\CN2CCC34c5ccccc5N5C(C6C7CC8N(CCC89c8cccc(O)c8N(C(C)=O)C69)C/C7=C\C)OCC(C1CC23)C54` (centres undefined), the T/C (dose: 11.25 mg/kg/injection, schedule: Q01DX009 (ip), vehicle: saline with Tween-80) was 106 % of control; the T/C (dose: 22.5 mg/kg/injection, schedule: Q01DX009 (ip), vehicle: saline with Tween-80) was 105 % of control; the T/C (dose: 45.0 mg/kg/injection, schedule: Q01DX009 (ip), vehicle: saline with Tween-80) is 106 % of control; the T/C (dose: 90.0 mg/kg/injection, schedule: Q01DX009 (ip), vehicle: saline with Tween-80) is 104 % of control.

With `CCOC(=O)c1ccccc1N1C(=O)c2ccccc2NP1(=O)Oc1ccccc1` (centres undefined), the T/C (dose: 25.0 mg/kg/injection, schedule: Q01DX005 (ip), vehicle: Klucel (hydroxypropylcellulose) (HPC)) was 106 % of control; the T/C (dose: 50.0 mg/kg/injection, schedule: Q01DX005 (ip), vehicle: Klucel (hydroxypropylcellulose) (HPC)) was 103 % of control; the T/C (dose: 100.0 mg/kg/injection, schedule: Q01DX005 (ip), vehicle: Klucel (hydroxypropylcellulose) (HPC)) was 106 % of control; the T/C (dose: 200.0 mg/kg/injection, schedule: Q01DX005 (ip), vehicle: Klucel (hydroxypropylcellulose) (HPC)) was 98 % of control.

As to `COc1cc(OC)c(OC)cc1/C=C\c1nccc2ccccc12`, the T/C was 99 % of control (dose: 50.0 mg/kg/injection, schedule: Q01DX009 (ip), vehicle: saline with Tween-80); 96 % of control (dose: 100.0 mg/kg/injection, schedule: Q01DX009 (ip), vehicle: saline with Tween-80); 96 % of control (dose: 200.0 mg/kg/injection, schedule: Q01DX009 (ip), vehicle: saline with Tween-80).

Turning to `O=C1OC(CO)CC1(O)CO` (centres undefined), the T/C reads like this: (dose: 60.0 mg/kg/injection, schedule: Q01DX005 (ip), vehicle: saline) 99 % of control; (dose: 120.0 mg/kg/injection, schedule: Q01DX005 (ip), vehicle: saline) 105 % of control; (dose: 240.0 mg/kg/injection, schedule: Q01DX005 (ip), vehicle: saline) 104 % of control.

In the case of `O=C(CCCCCCCCCCC(=O)NO)NO`, the T/C by setting is: under setting [1], 105 % of control; under setting [2], 106 % of control; under setting [3], 110 % of control.

`Cc1nc(Nc2c3ccccc3nc3ccccc23)sc1C`: the T/C was 103 % of control (dose: 12.5 mg/kg/injection, schedule: Q04DX002 (ip), vehicle: distilled water + Tween-80); 100 % of control (dose: 25.0 mg/kg/injection, schedule: Q04DX002 (ip), vehicle: distilled water + Tween-80); 88 % of control (dose: 50.0 mg/kg/injection, schedule: Q04DX002 (ip), vehicle: distilled water + Tween-80); 87 % of control (dose: 100.0 mg/kg/injection, schedule: Q04DX002 (ip), vehicle: distilled water + Tween-80); 90 % of control (dose: 200.0 mg/kg/injection, schedule: Q04DX002 (ip), vehicle: distilled water + Tween-80); 98 % of control (dose: 400.0 mg/kg/injection, schedule: Q04DX002 (ip), vehicle: distilled water + Tween-80).

With `CC1(C)N=C(Oc2ccc(Cl)cc2Cl)NC(=S)N1`, the T/C is, setting by setting: under setting [1], 95 % of control; under setting [2], 97 % of control; under setting [3], 95 % of control.

With `CCOC1=N[C@H](C)[C@H](C)N1`, the T/C is, setting by setting: (dose: 50.0 mg/kg/injection, schedule: Q01DX005 (ip), vehicle: saline) 100 % of control; (dose: 100.0 mg/kg/injection, schedule: Q01DX005 (ip), vehicle: saline) 103 % of control.

On to `CSCCC(NC(=O)C(Cc1ccccc1)NC(=O)CNC(=O)C(C)NC(=O)C(N)Cc1ccc(O)cc1)C(N)=O` (centres undefined), for which the T/C (dose: 8.75 mg/kg/injection, schedule: Q01DX005 (ip), vehicle: saline) is 103 % of control; the T/C (dose: 17.5 mg/kg/injection, schedule: Q01DX005 (ip), vehicle: saline) is 107 % of control; the T/C (dose: 35.0 mg/kg/injection, schedule: Q01DX005 (ip), vehicle: saline) is 100 % of control; the T/C (dose: 70.0 mg/kg/injection, schedule: Q01DX005 (ip), vehicle: saline) is 100 % of control; the T/C (dose: 140.0 mg/kg/injection, schedule: Q01DX005 (ip), vehicle: saline) was 104 % of control.

As for `COc1cccc(NC2=NCCS2)c1`, the T/C is 102 % of control under setting [4]; 105 % of control under setting [5]; 98 % of control (dose: 200.0 mg/kg/injection, schedule: Q01DX005 (ip), vehicle: saline with Tween-80).

Regarding `NCCNCCNCCNCCN` (tested in a mixture with another compound), the T/C is 118 % of control (dose: 25.0 mg/kg/injection, schedule: Q01DX009 (ip), vehicle: saline); 118 % of control (dose: 50.0 mg/kg/injection, schedule: Q01DX009 (ip), vehicle: saline); 100 % of control (dose: 100.0 mg/kg/injection, schedule: Q01DX009 (ip), vehicle: saline).

As to `[Cl][Pt+2][Cl].[NH-]C1CCCC1[NH-]` (centres undefined), the T/C (dose: 3.13 mg/kg/injection, schedule: Q04DX002 (ip), vehicle: saline with Tween-80) was 158 % of control; the T/C (dose: 6.25 mg/kg/injection, schedule: Q04DX002 (ip), vehicle: saline with Tween-80) was 198 % of control and 190 % of control and 171 % of control; the T/C (dose: 12.5 mg/kg/injection, schedule: Q04DX002 (ip), vehicle: saline with Tween-80) was 210 % of control and 197 % of control and 222 % of control; the T/C (dose: 25.0 mg/kg/injection, schedule: Q04DX002 (ip), vehicle: saline with Tween-80) was 235 % of control and 112 % of control.

In the case of `COc1ccc2nc(N(C)C)cc(N(C)C)c2c1`, the T/C (dose: 12.5 mg/kg/injection, schedule: Q01DX009 (ip), vehicle: Klucel (hydroxypropylcellulose) (HPC)) is 94 % of control; the T/C (dose: 25.0 mg/kg/injection, schedule: Q01DX009 (ip), vehicle: Klucel (hydroxypropylcellulose) (HPC)) was 94 % of control; the T/C under setting [6] is 87 % of control.

In the case of `CCCCCCCCCCN(CCCCCCCCCC)CC(O)c1ccc2nc3c(cc2c1)CCCC3` (centres undefined), the T/C by setting is: under setting [7], 101 % of control; under setting [8], 101 % of control; under setting [4], 102 % of control and 94 % of control.

Regarding `OC1CC2CCc3[nH]c4ccccc4c3CCN(C1)C2` (centres undefined), the T/C (dose: 5.5 mg/kg/injection, schedule: Q01DX005 (ip), vehicle: Klucel (hydroxypropylcellulose) (HPC)) is 91 % of control; the T/C (dose: 11.0 mg/kg/injection, schedule: Q01DX005 (ip), vehicle: Klucel (hydroxypropylcellulose) (HPC)) is 96 % of control; the T/C (dose: 22.0 mg/kg/injection, schedule: Q01DX005 (ip), vehicle: Klucel (hydroxypropylcellulose) (HPC)) is 100 % of control; the T/C (dose: 44.0 mg/kg/injection, schedule: Q01DX005 (ip), vehicle: Klucel (hydroxypropylcellulose) (HPC)) is 100 % of control.

Regarding `C/C=c1/[nH]c(=O)/c(=C\c2ccc(Cl)cc2)[nH]c1=O`, the T/C under setting [6] is 91 % of control; the T/C (dose: 100.0 mg/kg/injection, schedule: Q01DX009 (ip), vehicle: Klucel (hydroxypropylcellulose) (HPC)) is 93 % of control; the T/C (dose: 200.0 mg/kg/injection, schedule: Q01DX009 (ip), vehicle: Klucel (hydroxypropylcellulose) (HPC)) was 94 % of control.

Regarding `O=S(=O)(F)c1ncc2[nH]cnc2n1`, the T/C is 109 % of control under setting [7]; 114 % of control under setting [8]; 106 % of control and 111 % of control under setting [4]; 108 % of control under setting [5].
